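Values below derive from 48-hour exposures of cells grown in 96-well plates, with endpoints linearly interpolated between the two concentrations bracketing the appropriate inhibition level. GI50 is the concentration that inhibits growth by half. TGI marks complete inhibition of growth.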
How the values were obtained:
Experiment in all cases: DTP human tumour cell line panel, 48 h
SNB-19 CNS = test system: SNB-19 CNS
SK-MEL-5 melanoma = test system: SK-MEL-5 melanoma
CCRF-CEM leukemia = test system: CCRF-CEM leukemia
SK-OV-3 ovarian = test system: SK-OV-3 ovarian
HL-60(TB) leukemia = test system: HL-60(TB) leukemia
TK-10 renal = test system: TK-10 renal
MOLT-4 leukemia = test system: MOLT-4 leukemia
SNB-75 CNS = test system: SNB-75 CNS
U251 CNS = test system: U251 CNS
RXF 393 renal = test system: RXF 393 renal

| Compound | TGI (SNB-19 CNS) [µM] | TGI (SK-MEL-5 melanoma) [µM] | TGI (CCRF-CEM leukemia) [µM] | TGI (SK-OV-3 ovarian) [µM] | TGI (HL-60(TB) leukemia) [µM] | TGI (TK-10 renal) [µM] | TGI (MOLT-4 leukemia) [µM] | TGI (SNB-75 CNS) [µM] | TGI (U251 CNS) [µM] | TGI (RXF 393 renal) [µM] | GI50 (SNB-19 CNS) [µM] | GI50 (SK-MEL-5 melanoma) [µM] | GI50 (CCRF-CEM leukemia) [µM] | GI50 (SK-OV-3 ovarian) [µM] | GI50 (HL-60(TB) leukemia) [µM] | GI50 (TK-10 renal) [µM] | GI50 (MOLT-4 leukemia) [µM] | GI50 (SNB-75 CNS) [µM] | GI50 (U251 CNS) [µM] | GI50 (RXF 393 renal) [µM] |
| --- | --- | --- | --- | --- | --- | --- | --- | --- | --- | --- | --- | --- | --- | --- | --- | --- | --- | --- | --- | --- |
| O=C1NC2CCC(C2)C1c1ccccc1 (stereo unspecified) | > 100 | > 100 | > 100 | > 100 | > 100 | > 100 | > 100 | > 100 | > 100 | > 100 |  |  |  |  |  |  |  |  |  |  |
| COc1ccc(-c2nc3ncccn3c2/C=C/C(=O)c2cc(OC)c(OC)c(OC)c2)cc1 | 10.3 | 2.87 | > 100 | 7.01 | > 100 | 10.4 | > 100 | 5.05 | 4.26 | 2.57 | 3.01 | 1.52 | 4.01 | 2.5 | 2.52 | 2.88 | 3.1 | 1.89 | 1.29 | 1.11 |
| COC(=O)C12C3C4C5C3(C#N)C1C5(C(=O)OC)C42C(=O)N(C(C)C)C(C)C (stereo unspecified) | > 100 | > 100 | > 67.5 | > 100 | > 60 | > 100 | > 100 | > 100 | > 100 | > 100 |  |  |  |  |  |  |  |  |  |  |
| COc1cc2c(cc1OCCCCCCN1CCN(c3ncnc4ccccc34)CC1)N=CC1CCCN1C2=O (stereo unspecified) | 3.54 | 0.287 | 0.302 | 7.47 |  | 1.88 | 0.203 | 0.256 | 1.05 | 0.325 | 0.208 | 0.139 | 0.026 | 0.637 | 0.0782 | 0.155 | 0.0378 | 0.0407 | 0.0736 | 0.146 |
| CCOc1ccc(Nc2nc(-c3ccc4c(c3)NC(=O)CO4)cs2)cc1 | > 100 | 3.5 | > 100 | > 100 | 8.17 | > 100 | 5.28 | > 100 | > 100 | 62.4 | 18.9 | 1.65 | 6.28 | 32.5 | 2.14 | 9.98 | 2.01 | 18 | 10.7 | 16.1 |
| COc1ccc2c(CN3CCC[C@H]3C(=O)O)cc3cc4c(cc3c2c1)OCO4 | > 100 | 34.2 | > 100 | 51.1 | 67.8 | 67.4 | > 100 | 30.1 | > 100 | 23.2 | 14 | 12.2 | 10.2 | 14.6 | 22.9 | 14.7 | 5.33 | 11.4 | 13.2 | 6.81 |
| CC1(C)CCC[C@@]2(C)C1CC[C@H]1CC(O)C3(C)CCC12C3 (stereo partly specified) | 31.9 | 31.4 | 61.2 | 36.3 | 51.2 | 28.7 | 44.5 | 39.3 | 32.3 | 26.1 |  |  |  |  |  |  |  |  |  |  |
| COc1cc2cc(C(=O)Nc3cc(N)c4ccccc4c3CCCl)[nH]c2c(OC)c1OC | > 10.2 | 0.195 | 0.188 |  | 0.237 | 6.36 |  | 0.202 |  | 0.0219 | 0.122 | 0.0688 | < 0.005 | 0.0603 | 0.0361 | 0.0932 | 0.0132 | 0.0656 |  | 0.00875 |
| O=C1NC(=S)NC(=O)C1=Cc1cccc2cc3ccccc3cc12 | 5.32 | 5.23 |  | 8.79 | 5.67 | 3.48 | 5.24 | 3.7 | 3.36 | 3.53 |  |  |  |  |  |  |  |  |  |  |
| CCN=c1cc2sc3cc(NCC)c(C)cc3nc-2cc1C |  | 1.93 | 17.4 | 12.6 | 8.48 | 6.94 | > 100 | 5.11 | 6.71 | 18 |  | 0.475 | 0.76 | 2.58 | 1.66 | 2.04 | 0.714 | 1.8 | 0.646 | 3.22 |
| CCn1c(O)c(C=N)c(=O)n(CC)c1=O | > 100 | > 100 | > 100 | > 100 | > 100 | > 100 | > 100 | > 100 |  | > 100 |  |  |  |  |  |  |  |  |  |  |

Source: PubChem BioAssay (NCI)
